One assay has as its target human CB2 receptors (Homo sapiens (Human), UniProt P34972). The experiment in a line: cAMP assay, CHO cells expressing human CB2 receptors. Conditions: functional cAMP assay, CHO cells expressing human CB2; read-out: EC50 CB2 human. The assay is classed as cell-based. In short, it runs like this: (§1)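 Transfected CHO cells were preincubated in Krebs Ringer bicarbonate buffer with 1 mM IBMX for 30 min at 30 °C, then exposed to compound for 30 min at 30 °C. cAMP was measured by time-resolved FRET (730/645 nm) against a standard curve spanning 10 μM to 0.13 nM. EC50 values derived from concentration–response data.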
For orientation: cAMP levels reflect the balance of adenylyl cyclase and phosphodiesterase activity.

In another assay the target is human CB1 receptors (Homo sapiens (Human), UniProt P21554). The experiment in a line: cAMP assay, CHO cells expressing human CB1 receptors. It counts as cell-based. Conditions: functional cAMP assay, CHO cells expressing human CB1; read-out: EC50 CB1 human. An outline of the steps: as §1
human CB1 receptors, sequence (P21554 whole entry): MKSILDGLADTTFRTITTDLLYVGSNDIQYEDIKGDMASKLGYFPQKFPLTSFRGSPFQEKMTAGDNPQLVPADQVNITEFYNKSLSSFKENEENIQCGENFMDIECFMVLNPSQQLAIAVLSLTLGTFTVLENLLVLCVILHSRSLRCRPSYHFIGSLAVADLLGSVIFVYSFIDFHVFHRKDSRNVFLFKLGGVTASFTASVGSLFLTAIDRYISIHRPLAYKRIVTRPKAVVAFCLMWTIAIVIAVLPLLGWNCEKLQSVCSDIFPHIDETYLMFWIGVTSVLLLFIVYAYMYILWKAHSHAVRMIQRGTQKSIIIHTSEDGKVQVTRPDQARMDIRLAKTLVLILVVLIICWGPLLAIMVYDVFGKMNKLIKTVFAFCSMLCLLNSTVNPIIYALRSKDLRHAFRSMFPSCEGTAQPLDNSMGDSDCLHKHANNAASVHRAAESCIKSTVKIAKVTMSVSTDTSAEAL

This is an account of results in patent US10308659B2, “Pyridine derivatives” (Hoffmann-La Roche Inc., priority 2013, dated 2019).

human CB2 receptors, sequence (P34972 whole entry): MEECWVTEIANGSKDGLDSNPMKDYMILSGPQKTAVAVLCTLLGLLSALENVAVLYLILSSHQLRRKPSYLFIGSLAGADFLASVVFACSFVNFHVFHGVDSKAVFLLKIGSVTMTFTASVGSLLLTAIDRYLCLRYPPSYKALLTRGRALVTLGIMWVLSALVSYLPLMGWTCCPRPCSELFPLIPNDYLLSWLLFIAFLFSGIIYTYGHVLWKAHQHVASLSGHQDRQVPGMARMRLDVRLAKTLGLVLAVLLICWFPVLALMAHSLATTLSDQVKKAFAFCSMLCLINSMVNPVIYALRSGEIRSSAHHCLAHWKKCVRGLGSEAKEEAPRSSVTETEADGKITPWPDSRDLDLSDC

Turning to `COC1CN(c2cc(-c3noc(C(C)(C)C)n3)ncc2C2CC2)C1` [Example 81, 5-tert-butyl-3-[5-cyclopropyl-4-(3-methoxyazetidin-1-yl)pyridin-2-yl]-1,2,4-oxadiazole], the EC50 (commonly the concentration at which the effect is half-maximal) on human CB2 receptors is 21.1 nM; on human CB1 receptors, greater than 10000 nM.

For `CC(C)(C)c1nc(-c2cc(N3CC4(COC4)C3)c(C3CC3)cn2)no1` [Example 82, 6-[2-(5-tert-butyl-1,2,4-oxadiazol-3-yl)-5-cyclopropylpyridin-4-yl]-2-oxa-6-azaspiro[3.3]heptane], the 50% effective concentration (EC50) is 37.9 nM at human CB2 receptors and greater than 10000 nM on human CB1 receptors.

`CCOCCOc1cc(-c2noc(C(C)(C)C)n2)ncc1C1CC1` [Example 83, 5-tert-butyl-3-[5-cyclopropyl-4-(2-ethoxyethoxy)pyridin-2-yl]-1,2,4-oxadiazole]: the figures for the EC50 at human CB2 receptors and at human CB1 receptors were 30.1 nM and greater than 10000 nM, respectively.

Regarding `CCC(COC)Oc1cc(-c2noc(C(C)(C)C)n2)ncc1C1CC1` (stereo not shown) [Example 84, 5-tert-butyl-3-[5-cyclopropyl-4-(1-methoxybutan-2-yloxy)pyridin-2-yl]-1,2,4-oxadiazole], the EC50 on human CB2 receptors was 50.1 nM; on human CB1 receptors, greater than 10000 nM.

In the case of `COCC(C)Oc1cc(-c2noc(C(C)(C)C)n2)ncc1C1CC1` (stereo not shown) [Example 87, 5-tert-butyl-3-[5-cyclopropyl-4-(1-methoxypropan-2-yloxy)pyridin-2-yl]-1,2,4-oxadiazole], the results for the EC50 at human CB2 receptors and at human CB1 receptors were 113 nM and greater than 10000 nM, respectively.

Take `CC(C)(C)c1nc(-c2cc(OC3CCCOC3)c(C3CC3)cn2)no1` (stereo not shown) [Example 88, 5-tert-butyl-3-[5-cyclopropyl-4-(oxan-3-yloxy)pyridin-2-yl]-1,2,4-oxadiazole]: the EC50 on human CB2 receptors is 52.9 nM; at human CB1 receptors it was greater than 10000 nM.

With `COC(C)CCOc1cc(-c2noc(C(C)(C)C)n2)ncc1C1CC1` (stereo not shown) [Example 89, 5-tert-butyl-3-[5-cyclopropyl-4-(3-methoxybutoxy)pyridin-2-yl]-1,2,4-oxadiazole], the EC50 was 16.2 nM at human CB2 receptors and greater than 10000 nM at human CB1 receptors.

With `CC(C)(C)c1nc(-c2cc(OCC3COC3)c(C3CC3)cn2)no1` [Example 90, 5-tert-butyl-3-[5-cyclopropyl-4-(oxetan-3-ylmethoxy)pyridin-2-yl]-1,2,4-oxadiazole], the EC50 was 11.8 nM on human CB2 receptors and greater than 10000 nM on human CB1 receptors.

With `C[C@H](Oc1cc(-c2noc(C3CC3)n2)ncc1C1CC1)C(F)(F)F` [Example 91, 5-cyclopropyl-3-[5-cyclopropyl-4-[(2S)-1,1,1-trifluoropropan-2-yl]oxypyridin-2-yl]-1,2,4-oxadiazole], the EC50 on human CB2 receptors was 641 nM; at human CB1 receptors, greater than 10000 nM.

Turning to `CCN1CCC(Oc2cc(-c3noc(C(C)(C)C)n3)ncc2C2CC2)C1` (stereo not shown) [Example 92, 5-tert-butyl-3-[5-cyclopropyl-4-(1-ethylpyrrolidin-3-yl)oxypyridin-2-yl]-1,2,4-oxadiazole], the results for the EC50 at human CB2 receptors and at human CB1 receptors were 75.1 nM and 768 nM, respectively.

In the case of `CC(C)(C)c1nc(-c2cc(OCCN3CCCC3)c(C3CC3)cn2)no1` [Example 94, 5-tert-butyl-3-[5-cyclopropyl-4-(2-pyrrolidin-1-ylethoxy)pyridin-2-yl]-1,2,4-oxadiazole], the EC50 was 60.2 nM at human CB2 receptors and greater than 10000 nM on human CB1 receptors.

On to `CC(C)(C)c1nc(-c2cc(OCCN3CCCCC3)c(C3CC3)cn2)no1` [Example 95, 5-tert-butyl-3-[5-cyclopropyl-4-(2-piperidin-1-ylethoxy)pyridin-2-yl]-1,2,4-oxadiazole], for which the EC50 on human CB2 receptors was 26.1 nM; on human CB1 receptors, greater than 10000 nM.

Consider `CC(CN1CCCCC1)Oc1cc(-c2noc(C(C)(C)C)n2)ncc1C1CC1` (stereo not shown) [Example 96, 5-tert-butyl-3-[5-cyclopropyl-4-(1-piperidin-1-ylpropan-2-yloxy)pyridin-2-yl]-1,2,4-oxadiazole], for which the results for the EC50 on human CB2 receptors and on human CB1 receptors were 75.9 nM and 1010 nM, respectively.

For `CN1CCCCC1COc1cc(-c2noc(C(C)(C)C)n2)ncc1C1CC1` (stereo not shown) [Example 97, 5-tert-butyl-3-[5-cyclopropyl-4-[(1-methylpiperidin-2-yl)methoxy]pyridin-2-yl]-1,2,4-oxadiazole], the EC50 was 19 nM on human CB2 receptors and greater than 10000 nM at human CB1 receptors.

With `CC(C)(C)c1nnc(-c2cc(OC3CCOCC3)c(C3CC3)cn2)o1` [Example 98, 2-tert-butyl-5-[5-cyclopropyl-4-(oxan-4-yloxy)pyridin-2-yl]-1,3,4-oxadiazole], the EC50 on human CB2 receptors is 42 nM; on human CB1 receptors, greater than 10000 nM.

As to `CN1CCCC(Oc2cc(-c3noc(C(C)(C)C)n3)ncc2C2CC2)C1` (stereo not shown) [Example 99, 5-tert-butyl-3-[5-cyclopropyl-4-(1-methylpiperidin-3-yl)oxypyridin-2-yl]-1,2,4-oxadiazole], the EC50 on human CB2 receptors was 317 nM; on human CB1 receptors, greater than 10000 nM.

For `CCN1CCCC(Oc2cc(-c3noc(C(C)(C)C)n3)ncc2C2CC2)C1` (stereo not shown) [Example 100, 5-tert-butyl-3-[5-cyclopropyl-4-(1-ethylpiperidin-3-yl)oxypyridin-2-yl]-1,2,4-oxadiazole], the concentration for a half-maximal effect (EC50) on human CB2 receptors was 518 nM; at human CB1 receptors, greater than 10000 nM.

Regarding `CCN(CC)CC(C)Oc1cc(-c2noc(C(C)(C)C)n2)ncc1C1CC1` (stereo not shown) [Example 101, 2-[2-(5-tert-butyl-1,2,4-oxadiazol-3-yl)-5-cyclopropylpyridin-4-yl]oxy-N,N-diethylpropan-1-amine], the EC50 at human CB2 receptors was 142 nM; at human CB1 receptors, greater than 10000 nM.

Turning to `CC(C)(C)c1nc(-c2cc(OCCN3CCOCC3)c(C3CC3)cn2)no1` [Example 103, 4-[2-[2-(5-tert-butyl-1,2,4-oxadiazol-3-yl)-5-cyclopropylpyridin-4-yl]oxyethyl]morpholine], the EC50 on human CB2 receptors is 28.9 nM; at human CB1 receptors it was greater than 10000 nM.

Turning to `CC(C)(C)c1nc(-c2cc(OC3CCCNC3)c(C3CC3)cn2)no1` (stereo not shown) [Example 104, 5-tert-butyl-3-(5-cyclopropyl-4-piperidin-3-yloxypyridin-2-yl)-1,2,4-oxadiazole], the EC50 on human CB2 receptors was 69.8 nM; at human CB1 receptors it was greater than 10000 nM.

Consider `CC(C)(C)c1nc(-c2cc(OCC3(F)COC3)c(C3CC3)cn2)no1` [Example 105, 5-tert-butyl-3-[5-cyclopropyl-4-[(3-fluorooxetan-3-yl)methoxy]pyridin-2-yl]-1,2,4-oxadiazole], for which the EC50 on human CB2 receptors was 29.1 nM; at human CB1 receptors, greater than 10000 nM.

Regarding `Cc1nc(COc2cc(-c3noc(C(C)(C)C)n3)ncc2C2CC2)c(C)o1` [Example 106, 5-tert-butyl-3-[5-cyclopropyl-4-[(2,5-dimethyl-1,3-oxazol-4-yl)methoxy]pyridin-2-yl]-1,2,4-oxadiazole], the results for the EC50 on human CB2 receptors and on human CB1 receptors were 128 nM and greater than 10000 nM, respectively.

Regarding `Cc1cc(COc2cc(-c3noc(C(C)(C)C)n3)ncc2C2CC2)no1` [Example 107, 5-tert-butyl-3-[5-cyclopropyl-4-[(5-methyl-1,2-oxazol-3-yl)methoxy]pyridin-2-yl]-1,2,4-oxadiazole], the 50% effective concentration (EC50) was 95.8 nM on human CB2 receptors and greater than 10000 nM on human CB1 receptors.

Consider `CC(C)(C)c1nc(-c2cc(Oc3cccc(S(C)(=O)=O)c3)c(C3CC3)cn2)no1` [Example 108, 5-tert-butyl-3-[5-cyclopropyl-4-(3-methylsulfonylphenoxy)pyridin-2-yl]-1,2,4-oxadiazole], for which the values for the half-maximal effective concentration (EC50) on human CB2 receptors and at human CB1 receptors were 69.8 nM and greater than 10000 nM, respectively.

For `CC(C)(C)c1nc(-c2cc(OC3CCOCC3)c(C3(F)COC3)cn2)no1` [Example 109, 5-tert-butyl-3-[5-(3-fluorooxetan-3-yl)-4-(oxan-4-yloxy)pyridin-2-yl]-1,2,4-oxadiazole], the EC50 was 162 nM on human CB2 receptors and greater than 10000 nM at human CB1 receptors.

For `CC(C)(C)c1nc(-c2cc(Oc3ccc(F)cc3)c(C3(F)COC3)cn2)no1` [Example 110, 5-tert-butyl-3-[5-(3-fluorooxetan-3-yl)-4-(4-fluorophenoxy)pyridin-2-yl]-1,2,4-oxadiazole], the half-maximal effective concentration (EC50) is 103 nM on human CB2 receptors and greater than 10000 nM on human CB1 receptors.

Take `Cc1nc(C2(C)COC(c3cc(OCC(F)(F)F)c(C4CC4)cn3)=N2)no1` (stereo not shown) [Example 111, 3-[2-[5-cyclopropyl-4-(2,2,2-trifluoroethoxy)pyridin-2-yl]-4-methyl-5H-1,3-oxazol-4-yl]-5-methyl-1,2,4-oxadiazole]: the EC50 at human CB2 receptors is 57.6 nM; at human CB1 receptors it was greater than 10000 nM.

As for `CC(C)(C)c1nc(-c2cc(OC3CCOCC3)c(C3CC3)c(Cl)n2)no1` [Example 114, 5-tert-butyl-3-[6-chloro-5-cyclopropyl-4-(oxan-4-yloxy)pyridin-2-yl]-1,2,4-oxadiazole], the figures for the EC50 at human CB2 receptors and on human CB1 receptors were 3.7 nM and 455 nM, respectively.

Consider `CC(C)(C)c1nc(-c2cc(OCC(F)F)c(C3CC3)cn2)no1` [Example 115, 5-tert-butyl-3-[5-cyclopropyl-4-(2,2-difluoroethoxy)pyridin-2-yl]-1,2,4-oxadiazole], for which the values for the concentration giving a half-maximal response (EC50) on human CB2 receptors and on human CB1 receptors were 2 nM and greater than 10000 nM, respectively.

`CC(C)(C)c1nc(-c2cc(OCCF)c(C3CC3)cn2)no1` [Example 116, 5-tert-butyl-3-[5-cyclopropyl-4-(2-fluoroethoxy)pyridin-2-yl]-1,2,4-oxadiazole]: the EC50 on human CB2 receptors is 15.5 nM; at human CB1 receptors, greater than 10000 nM.

With `CC(C)(C)c1nc(-c2cc(OCc3ccccn3)c(C3CC3)cn2)no1` [Example 117, 5-tert-butyl-3-[5-cyclopropyl-4-(pyridin-2-ylmethoxy)pyridin-2-yl]-1,2,4-oxadiazole], the EC50 is 53.9 nM on human CB2 receptors and greater than 10000 nM on human CB1 receptors.

`CC(C)(C)c1nc(-c2cc(OCc3ccc(F)cn3)c(C3CC3)cn2)no1` [Example 118, 5-tert-butyl-3-[5-cyclopropyl-4-[(5-fluoropyridin-2-yl)methoxy]pyridin-2-yl]-1,2,4-oxadiazole]: the values for the EC50 on human CB2 receptors and at human CB1 receptors were 35 nM and greater than 10000 nM, respectively.
